Assays:
[1] = ^153 Gd biodistribution, IV study in rats; format: in vivo, male rats; conditions: for effect of added Ca^2+ or dimethylglucamine on bone uptake: Ca^2+ and dimethylglucamine added separately to aqueous solutions; for Bladder & Urine / Blood / Bone / Carcass / Injection Site / Kidneys / Liver & Spleen / Lung / Muscle / Ratio Bone/Blood / Ratio Bone/Liver & Spleen / Ratio Bone/Muscle / Stomach & Gut / usefulness as bone scanning / bone-seeking agent: rat, IV, two hours post injection
Text: This example uses ^153 Gd to compare the biodistribution properties of various complexes in rats.
Using ^153 Gd, a comparison was made of certain properties of aqueous "solutions" of
The biodistribution data there reported were obtained by means of an IV study in male rats which were sacrified two hours post injection. % activity per organ is given, together with ratios of bone to organ.
It is known that Ca^2+ can bind to di- and poly-phosphonates, and that this is one reason why these materials are toxic. It is also known that dimethylglucamine can be used to solubilize complexes of this kind.

[2] = Binding of ligands to hydroxy apatite, ^31 P NMR study
Experimental: (§1) 1 ml of hydroxy apatite solution 250 mg/ml in water was used for all the binding assays to described.
The solid from 1 ml of hydroxy apatite solution was isolated by centrifugation and the supernatant removed. 0.41 ml of a 0.1M solution of ligand at pH 7.5±0.1 were than added and the solid resuspended. The solid was once more spun down and the supernatant analysed by ^31 P NMR. This enabled the amount of bound phosphonate to be analysed.

[3] = Binding of chromium complexes to hydroxy apatite, by T1 relaxation measurement; conditions: 0.4 ml of 50 mM metal complex; HAP 250 mg/ml
Experimental: as §1
The procedure above was followed but this time 0.4 ml of 50 mM metal complex solution was added and the solid resuspended. The supernatant was analysed by T1 using T1 relaxation measurements and the amount bound to hydroxy apatite calculated.

[4] = Solubility / precipitation of Gd complexes; format: physicochemical
Experimental: Equal volumes of 1 mM methylene diphosphonic acid and 0.5 mM Gd^3+ were used to prepare a complex designated Gd.MDP.
Equal volumes of 10 mM ethane-1-hydroxy-1,1-diphosphonic acid and 5 mM Gd^3+ were used to prepare a complex designated Gd.EHDP.

[5] = ligand 0.1M, 0.41 ml, pH 7.5±0.1, HAP 250 mg/ml, ^31 P NMR

For `O=P(O)(O)CN(CCN(CP(=O)(O)O)CP(=O)(O)O)CP(=O)(O)O.[Gd]` [Gd.EDTMP], the “effect of added Ca^2+ or dimethylglucamine on bone uptake” value [1] was “neither addition had a significant effect”, the “Bladder & Urine” value [1] was 45.8 % activity per organ and the Blood [1] was 0.6 % activity per organ. For the same compound, the Bone [1] was 45.2 % activity per organ, the Carcass [1] was 3.5 % activity per organ and the “Injection Site” value [1] was 2.1 % activity per organ. The Kidneys [1] was 0.4 % activity per organ, the “Liver & Spleen” value [1] was 1.4 % activity per organ and the Lung [1] was 0.1 % activity per organ. For the same compound, the Muscle [1] was 1.1 % activity per organ, the “Ratio Bone/Blood” value [1] was 173.0 and the “Ratio Bone/Liver & Spleen” value [1] was 35.2. For the same compound, the “Ratio Bone/Muscle” value [1] was 491.2, the “Stomach & Gut” value [1] was 1.9 % activity per organ and the “usefulness as bone scanning / bone-seeking agent” value [1] was “good bone-seeking agent”.
In the case of `O=P(O)(O)CN(Cc1cccc(CN(CP(=O)(O)O)CP(=O)(O)O)c1)CP(=O)(O)O` [MXDTMP, Meta-xylene diamine tetramethylene phosphonate], the “% Bound to HAP” value [2, 5] is reported as 84.1%.
With `O=C(O)CCCN(CP(=O)(O)O)CP(=O)(O)O` [GABADMP, Gamma amino butyric acid dimethylene phosphonate] the “% Bound to HAP” value [2, 5] was 77.8%.
In the case of `O=C(O)CN(CP(=O)(O)O)CP(=O)(O)O.O=C(O)CN(CP(=O)(O)O)CP(=O)(O)O.[Cr]` [Cr(GDMP)2], the “% Bound” value [3] is reported as 80%.
With `O=P(O)(O)CN(Cc1cccc(CN(CP(=O)(O)O)CP(=O)(O)O)c1)CP(=O)(O)O.[Cr]` [CrMXDTMP] the “% Bound” value [3] was 96%.
For `O=C(O)CCCCCN(CP(=O)(O)O)CP(=O)(O)O.O=C(O)CCCCCN(CP(=O)(O)O)CP(=O)(O)O.[Cr]` [Cr(AHADMP)2], the “% Bound” value [3] was 96%.
For `O=P(O)(O)CN(CCO)CP(=O)(O)O` [AEDMP, Amino ethanol dimethylene phosphonate], the “% Bound to HAP” value [2, 5] was 50.9%.
In the case of `O=C(O)CCCCCN(CP(=O)(O)O)CP(=O)(O)O` [AHADMP, 6-amino hexanoic acid dimethylene phosphonate], the “% Bound to HAP” value [2, 5] is reported as 89.7%.
With `O=P(O)(O)CP(=O)(O)O.[Gd]` [Gd.MDP] the “Bladder & Urine” value [1] was 1.0 % activity per organ, the Blood [1] was 0.1 % activity per organ and the Bone [1] was 3.1 % activity per organ. The Carcass [1] was 0.7 % activity per organ, the “Injection Site” value [1] was 0.5 % activity per organ and the Kidneys [1] was 0.3 % activity per organ. For the same compound, the “Liver & Spleen” value [1] was 93.9 % activity per organ, the Lung [1] was 0.4 % activity per organ and the Muscle [1] was 0.3 % activity per organ. The “Ratio Bone/Blood” value [1] was 33.2, the “Ratio Bone/Liver & Spleen” value [1] was 0.0 and the “Ratio Bone/Muscle” value [1] was 80. For the same compound, the “Stomach & Gut” value [1] was 0.0 % activity per organ, the “usefulness as bone scanning / bone-seeking agent” value [1] was “not useful as bone scanning agents” and the “solubility” value ([4]; around physiological pH's) was “poor solubility properties”.
With `O=C(O)CCCN(CP(=O)(O)O)CP(=O)(O)O.O=C(O)CCCN(CP(=O)(O)O)CP(=O)(O)O.[Cr]` [Cr(GABADMP)2] the “% Bound” value [3] was 90%.
For `CC(O)(P(=O)(O)O)P(=O)(O)O.[Gd]` [Gd.EHDP], the “effect of added Ca^2+ or dimethylglucamine on bone uptake” value [1] was “neither addition had a significant effect”, the “Bladder & Urine” value [1] was 24.0 % activity per organ and the Blood [1] was 21.45 % activity per organ. For the same compound, the Bone [1] was 22.64 % activity per organ, the Carcass [1] was 0.01 % activity per organ and the “Injection Site” value [1] was 2.91 % activity per organ. The Kidneys [1] was 1.05 % activity per organ, the “Liver & Spleen” value [1] was 11.29 % activity per organ and the Lung [1] was 1.55 % activity per organ. The Muscle [1] was 13.8 % activity per organ, the “Ratio Bone/Blood” value [1] was 1.24 and the “Ratio Bone/Liver & Spleen” value [1] was 2.04. For the same compound, the “Ratio Bone/Muscle” value [1] was 14.07, the “Stomach & Gut” value [1] was 4.21 % activity per organ and the “usefulness as bone scanning / bone-seeking agent” value [1] was “not useful as bone scanning agents”. The “pH needed to avoid precipitation” value ([4]; equal volumes 10 mM ligand and 5 mM Gd^3+) was “above 7”.
With `O=P(O)(O)CN(Cc1ccc(CN(CP(=O)(O)O)CP(=O)(O)O)cc1)CP(=O)(O)O` [PXDTMP, Para-xylene diamine tetramethylene phosphonate] the “% Bound to HAP” value [2, 5] was 88.0%.
With `O=P(O)(O)CN(CCO)CP(=O)(O)O.O=P(O)(O)CN(CCO)CP(=O)(O)O.[Cr]` [Cr(AEDMP)2] the “% Bound” value [3] was 96%.
For `[153Gd+3].[Cl-].[Cl-].[Cl-]` [^153 Gd.Cl3], the “Bladder & Urine” value [1] was 12.5 % activity per organ, the Blood [1] was 3.7 % activity per organ and the Bone [1] was 38.6 % activity per organ. For the same compound, the Carcass [1] was 1.8 % activity per organ, the “Injection Site” value [1] was 3.4 % activity per organ and the Kidneys [1] was 2.5 % activity per organ. For the same compound, the “Liver & Spleen” value [1] was 32.5 % activity per organ, the Lung [1] was 0.6 % activity per organ and the Muscle [1] was 4.0 % activity per organ. For the same compound, the “Ratio Bone/Blood” value [1] was 12.2, the “Ratio Bone/Liver & Spleen” value [1] was 1.1 and the “Ratio Bone/Muscle” value [1] was 83. For the same compound, the “Stomach & Gut” value [1] was 3.9 % activity per organ.
For `O=C(O)CN(CP(=O)(O)O)CP(=O)(O)O` [GDMP, Glycine dimethylene phosphonate], the “% Bound to HAP” value ([2]; pH 7.5) was 88.2%.
